# Test results as given in patent US10472341B2, “Bicyclic tetrahydrothiazepine derivatives useful for the treatment of neoplastic and/or infectious diseases” (APEIRON BIOLOGICS AG, priority 2015, dated 2019).
# Counter-ions that a name gives are not always drawn. Like-named read-outs stand apart in the source and are kept apart here.
# Assays:
# [1] = system: aCD3/aCD28-stimulated human PBMCs; assay: Cytokine production in aCD3/aCD28 stimulated human PBMCs; type: cell-based; conditions: PBMC, 18 h
# Summary of the method: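 Ficoll-isolated human PBMCs at 1e6 cells/mL in X-Vivo15, stimulated with soluble anti-CD3/CD28 (OKT3 and 28.2, 1 μg/mL each) plus compound for 18 h at 37° C. Supernatant cytokines quantified by MSD or HTRF.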
# [2] = system: non-stimulated PBMCs; assay: Non-stimulated PBMCs: cytokine secretion and signs of T-cell activation; type: cell-based, human
# From the text: This is an important finding for compounds that shall selectively act on T cells which have been activated by presence of antigen from pathogens or tumors, but shall not lead to an unwanted general activation of all T cells of a patient.
# [3] = system: aCD3/aCD28-stimulated human CD4+-T-cells; assay: IL-2 production and activation markers in aCD3/aCD28 stimulated isolated human CD4+-T-cells; type: cell-based; conditions: IL-2 production at 3 μM compound
# Summary of the method: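 CD4+ T cells isolated from buffy-coat PBMCs by microbeads were plated in Xvivo medium (1.5*10^5 cells/well) and stimulated with anti-CD3/28 mAbs plus compound. IL-2 measured by ELISA in supernatants at 24 h or 48 h; CD25 and proliferation by flow cytometry, CD69 at 24 h. Activity classes based on IL-2 at 3 μM compound.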
# [4] = enhancement of IFN-γ production, read-out: Activity Class IFN-γ
# [5] = enhancement of IL-2 production, read-out: Activity Class IL-2
Structure (SMILES),"EC50 [1, 4]","EC50 [1, 5]",cytokine secretion or other signs of T-cell activation [2],Activity Class CD4+ [3]
"N[C@H]1CS(=O)(=O)c2cc(F)c(C(=O)NC3CC3(F)F)cc2N(Cc2ccc(Cl)cc2)C1=O (stereo partly drawn) [Example 1, (3R)-3-amino-5-[(4-chlorophenyl)methyl]-N-(2,2-difluorocyclopropyl)-8-fluoro-1,1,4-trioxo-2,3,4,5-tetrahydro-1λ^6,5-benzothiazepine-7-carboxamide hydrochloride]",< 1580 nM,< 1580 nM,did not enhance cytokine secretion or other signs of T-cell activation,A (IL-2 production at 3 μM compound concentration >10 ng/mL)
"CCCCNC(=O)c1ccc2c(c1)N(Cc1ccc(OC(F)(F)F)cc1)C(=O)[C@@H](N)CS2(=O)=O.Cl [Example 67, (3R)-3-amino-N-butyl-1,1,4-trioxo-5-{[4-(trifluoromethoxy)phenyl]methyl}-2,3,4,5-tetrahydro-1λ^6,5-benzothiazepine-7-carboxamide hydrochloride]",< 1580 nM,< 1580 nM,did not enhance cytokine secretion or other signs of T-cell activation,A (IL-2 production at 3 μM compound concentration >10 ng/mL)
"Cl.N[C@H]1CS(=O)(=O)c2cc(F)c(C(=O)NCCCC(F)(F)F)cc2N(Cc2ccc(Cl)cc2)C1=O [Example 70, (3R)-3-amino-5-[(4-chlorophenyl)methyl]-8-fluoro-1,1,4-trioxo-N-(4,4,4-trifluoro-butyl)-2,3,4,5-tetrahydro-1λ^6,5-benzothiazepine-7-carboxamide hydrochloride]",< 1580 nM,< 1580 nM,–,A (IL-2 production at 3 μM compound concentration >10 ng/mL)
"CC(C)NC(=O)c1cc2c(cc1F)S(=O)(=O)C[C@H](N)C(=O)N2Cc1ccc(Cl)cc1.Cl [Example 77, (3R)-3-amino-5-[(4-chlorophenyl)methyl]-8-fluoro-1,1,4-trioxo-N-(propan-2-yl)-2,3,4,5-tetrahydro-1λ^6,5-benzothiazepine-7-carboxamide hydrochloride]",1580 to 5010 nM,1580 to 5010 nM,did not enhance cytokine secretion or other signs of T-cell activation,C (IL-2 production at 3 μM compound concentration between 2-fold increase as compared to mean IL-2 production of stimulated cells in the absence of compounds and <2 ng/mL)
